Test results: patent US9603896B2, “Peptide compounds and methods of production and use thereof” (priority 2012, dated 2017)
Where two headings read alike, the source gives them in different places. Ends that are not written are not given here.

How the values were obtained:
[1] = tested on: mouse cornea; experiment: In vivo model of corneal wound healing (corneal epithelial abrasion)
Protocol: The in vivo model of wound healing was carried out using a disposable biopsy punch (2 mm, Miltex, York, Pa.) to demarcate the mouse cornea and a 0.5 mm burr using the AlgerBrush II (The Alger Company, Inc., Lago Vista, Tex.) to remove the corneal epithelium. The corneal abrasions were treated at 0 and 16 hours with peptide 95-122 (10^−5 M), peptide 120-146WH (10^−6 M and 10^−8M), peptide 120-146WR ((10^−6 M and 10^−8M), or vehicle control (0.9% sodium chloride, pH 5.5, Baxter, Deerfield, Ill.). Corneal abrasions were visualized using sterile fluorescein sodium ophthalmic strips USP (Fluorets®, Chauvin Laboratory, Aubenas, France) dampened with sterile PBS. Images were taken at 0, 16, and 24 hours immediately following fluorescein staining.
Mice were anesthetized using ketamine (100 mg/kg; Bionichepharma, LLC., St. Lake Forrest, Ill.) and xylazine ([…]; Rompun; Bayer Corp., Shawnee Mission, Kans.), and the right cornea was wounded as follows. A disposable biopsy punch (2 mm, Miltex, York, Pa.) was used to demarcate the mouse cornea. The corneal epithelium was carefully removed within the 2 mm demarcated area with a 0.5 mm burr using the AlgerBrush II (The Alger Company, Inc., Lago Vista, Tex.). The corneal abrasions were treated at 0 and 16 hours with HB-EGF (250 ng/ml), rCAP37 (250 ng/ml), or vehicle control (0.9% sodium chloride, pH 5.5, Baxter, Deerfield, Ill.). Corneal abrasions were visualized using sterile fluorescein sodium ophthalmic strips USP (FLUORETS®, Chauvin Laboratory, Aubenas, France) dampened with sterile PBS. Images were taken at 0, 16, 24, and 48 hours immediately following fluorescein staining using a surgical microscope equipped with a camera (Carl Zeiss OPMI VISU 140, Carl Zeiss Surgical, Inc., Oberkochen, Germany). The areas of the open wound were quantitated using ImageJ software (US National Institutes of Health), and the results were reported as the percentage of wound closure.
Whole mouse eyes were collected for histology at 0, 6, 16, 24, and 48 hours post wounding and were immediately placed in Prefer fixative (Anatech LTD., Battle Creek, Mich.) for 20 minutes before being transferred to 70% ethanol. Tissues were paraffin-embedded and cut at a thickness of 5 μm, mounted on SUPERFROSTPLUS® slides (Statlab Medical Products, Lewisville, Tex.), and subsequently deparaffinized, rehydrated, and washed in deionized water. Sections were stained with hematoxylin (Leica Microsystems, Buffalo Grove, Ill.) and rinsed twice in deionized water before being washed in Blue Buffer (Leica Microsystems). The sections were finally washed in deionized water and 95% ethanol prior to being counterstained with eosin (Leica Microsystems). Sections were dehydrated in ethanol and cleared in xylene.

[2] = tested on: Pseudomonas aeruginosa ATCC® 27853™; format: cell-based; conditions: 180 minutes
[3] = tested on: Acinetobacter baumannii ATCC® BAA-747™; experiment: In vitro bactericidal assay (CFU remaining, log reduction); format: cell-based; conditions: for reduction of CFU/ml / bactericidal activity against Acinetobacter baumannii: 60 minutes; for reduction of CFU/ml: highest peptide concentrations (25 μM); for bactericidal activity against Acinetobacter baumannii: peptides up to 25 μM, gentamicin 4 μg/ml
Protocol: The three peptide compounds BCC01-5RMP (SEQ ID NO:21), BCC02-5RMP (SEQ ID NO:22), and BCC03-5RMP (SEQ ID NO:23) were assayed for in vitro bactericidal activity against Pseudomonas aeruginosa, Escherichia coli, Salmonella typhimurium, and Acinetobacter baumannii. The starting inoculum for all experiments was 1×10^6 colony forming units (CFU)/ml. The CFU remaining at the end of 60 to 180 minute incubation was determined, and the data plotted as a log reduction in CFU/ml.
For FIGS. 10-13, in vitro bactericidal assays were performed using a starting inoculum of 1×10^6 CFU/ml of the bacterial suspension. The CFU remaining at the end of the 60-180 minute incubation was determined, and the data was plotted as log reduction in CFU/ml.
In particular, each of the test peptides (CAP37 peptides 120-146WR, 120-146WH, and 95-122 (SEQ ID NOs: 30, 31, and 26, respectively)) was used at 25, 12.5, 6.25, and 3.12 μM. Gentamicin was used at 4 μg/ml. 1×10^6/ml Acinetobacter baumannii ATCC® BAA-747″ or Pseudomonas aeruginosa ATCC® 27853™ (American Type Culture Collection, Manassas, Va.) were incubated with the peptides, negative buffer control (tryptone saline), and positive control gentamicin at pH 5.5 or 7.2. A 60 minute incubation was used for Acinetobacter baumannii ATCC® BAA747™, while a 180 minute incubation was used for Pseudomonas aeruginosa ATCC® 27853™. 50 μl aliquots were plated out on agar plates and incubated overnight. Colony forming units were counted after overnight incubation and CFU/ml calculated.

Sequence	amount of corneal wound healing vs vehicle-treated ([1]; 10^−8M or 10^−6M at 0 and 16 hours, closure at 16 and 24 hours)	reduction of CFU (FIG. 14) ([2]; pH 5.5, highest concentrations (150 μg/ml))	reduction of CFU/ml ([2]; pH 7.2, highest concentrations of peptides (25 μM))	bactericidal activity against Pseudomonas aeruginosa ([2]; pH 7.2, peptides at 25 μM)	activity against A. baumannii ([3]; 25 μM)	reduction of CFU/ml ([3]; pH 5.5)	reduction of CFU/ml ([3]; pH 7.2)	corneal wound healing (wound closure at 16 and 24 hours) vs vehicle ([1]; 10^−5 M at 0 and 16 hours)	bactericidal activity against Pseudomonas aeruginosa ([2]; pH 5.5, peptides up to 25 μM)	bactericidal activity against Acinetobacter baumannii ([3]; pH 5.5)	bactericidal activity against Acinetobacter baumannii ([3]; pH 7.2)
GTRCQVAGWGSWHSGGRLSRFPRFVNV [Peptide 120-146WH]	significantly greater	6 logs	6 logs	as effective as the standard antibiotic gentamicin	highly active	~4 logs	~5.5 logs				
LDREANLTSSVTILPLPLQNATVEAGTR (listed as Homo sapiens) [Peptide 95-122]				not active				promotes corneal wound healing	not active	not active	not active
